From patent US12228565B2, “Blood cell lysis compositions and uses thereof” (Instrumentation Laboratory Company, priority 2021, dated 2025)

Assays:
[1] = Foam height of surfactant in water based solution (Ross-Miles method); format: physicochemical
Text: (§1) Surfactants used for lysing, including the secondary alcohol ethoxylates described herein, may lower surface tension in a liquid blood sample and induce foam formation in the blood sample as air is mixed into the blood sample. Foam is detrimental to optical absorbance measurements because it causes additional light scattering. In some implementations, surfactants for performing cell lysis in CO-Oximetry may reduce or minimize foam formation and/or produce foam that dissipates quickly prior to spectral measurements. […] (Celsius). […] Standard measurements of the foam height may be taken, for example, five minutes after addition of the surfactant to a water based solution. The foam height produced by a secondary alcohol ethoxylate may be measured, for example, using the Ross-Miles method.
(§2) Triton-X100 is a control (or reference) surfactant against which the secondary alcohol ethoxylate surfactants are compared. […] In Table 1 below, […], which is a property of the surfactant that indicates/relates to the effectiveness of the material as a surfactant.

[2] = Surface tension of surfactant; format: physicochemical
Text: as §1, §2

[3] = tested on: whole blood cells; details: after 1 to 2 seconds; composition of Table 2, surfactant 9-14%
Text: The blood sample analyzed by CO-Oximeter system 5 may be a whole blood sample that is lysed using one or more of the blood cell lysing compositions described herein. More specifically, in example CO-Oximeter 5, a blood cell lysis composition and a blood sample are introduced into a mixing chamber—e.g., through a mixing valve—in an optical cell 7. Movement of the blood sample and blood cell lysis composition through the mixing chamber under simultaneous actuation implemented by a solenoid causes the blood sample and lysis composition to simultaneously mix and lyse the red blood cells. The resulting mixture constitutes a lysed blood sample that is usable to obtain optical absorbance measurements by the CO-Oximeter with a reduction or elimination of scattering effects caused by red blood cells.
In an example testing procedure, secondary alcohol ethoxylate1 and secondary alcohol ethoxylate2 were included in the example blood cell lysis composition described with respect to Table 2 below at concentrations of 9% to 14% and tested in a CO-Oximetry system of the type described herein.

Tergitol™ Type 15-S-9 [secondary alcohol ethoxylate2]
Foam Height—5 minutes (0.1 weight % actives) [1]: 43 mm
Foam height—Initial (0.1 weight % actives) [1]: 124 mm
Surface Tension (1% actives, 25° C.) [2]: 30 dynes/cm
lysis of whole blood cells [3]: about 100%

Triton X-100 [reference compound]
Foam Height—5 minutes (0.1 weight % actives) [1]: 107 mm
Foam height—Initial (0.1 weight % actives) [1]: 128 mm
Surface Tension (1% actives, 25° C.) [2]: 33 dynes/ dynes/cm
